Results taken from patent US10508085B2, “Compounds and methods for IDO and TDO modulation, and indications therefor” (Plexxikon Inc., priority 2016, dated 2019).
Where two headings read alike, the source gives them in different places.

Key:
[1] = molecular target: T1, Human Indoleamine 2,3-dioxygenase (IDO) (Homo sapiens, UniProt P14902); test: Human IDO enzymatic assay (kynurenine level); format: biochemical; conditions: 6 nM IDO, 10 μM L-Trp; geometric mean; read-out: IDO1 GMean: IC50 (μM) (Biochemical Assay)
T1 construct: His tag (N); made in house; host or cells: E. coli
Outline: (§1)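 N-His human IDO (6 nM, 10 μM L-Trp, 5 μM methylene blue, 20 min) or TDO (1 nM, 350 μM L-Trp, 0.4 μM methylene blue, 70 min) run at room temp in pH 6.5 phosphate with ascorbate, catalase, Tween 20. TCA stop, 30 min 50 °C converts N-formylkynurenine to kynurenine; IC50 by nonlinear regression.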

[2] = molecular target: T2, Human Tryptophan 2,3-dioxygenase (TDO) (Homo sapiens, UniProt P48775); test: Human TDO enzymatic assay (kynurenine level); format: biochemical; conditions: 1 nM TDO, 350 μM L-Trp; geometric mean; read-out: TDO GMean: IC50 (μM) (Biochemical Assay)
T2 construct: His tag (N); made in house; host or cells: E. coli
Outline: as §1

[3] = molecular target: T3, human IDO (IDO1-expressing HEK293 cells) (Homo sapiens, UniProt P14902); test: Cell based kynurenine assay, IDO1-expressing HEK293 cell clones; conditions: IDO1-expressing HEK293 cells, geometric mean, read-out: HEK293 IDO1 Kynurenine GMean IC50 (μM) (Cellular Assay)
T3 construct: expressed in transfected cells
Outline: (§2)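 Stably transfected HEK293 clones expressing human IDO1 or TDO (CMV promoter) were seeded at 2.5×10^4 cells/well and treated with serially diluted compounds for 24 h. Supernatant kynurenine was then measured, and % inhibition versus DMSO-treated cell and media-only controls was fitted by nonlinear regression to give IC50.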

[4] = molecular target: T4, human TDO (TDO-expressing HEK293 cells) (Homo sapiens, UniProt P48775); test: Cell based kynurenine assay, TDO-expressing HEK293 cell clones; conditions: TDO-expressing HEK293 cells, geometric mean, read-out: HEK293 TDO Kynurenine GMean IC50 (μM) (Cellular Assay)
T4 construct: expressed in transfected cells
Outline: as §2

T3 sequence (P14902 whole entry): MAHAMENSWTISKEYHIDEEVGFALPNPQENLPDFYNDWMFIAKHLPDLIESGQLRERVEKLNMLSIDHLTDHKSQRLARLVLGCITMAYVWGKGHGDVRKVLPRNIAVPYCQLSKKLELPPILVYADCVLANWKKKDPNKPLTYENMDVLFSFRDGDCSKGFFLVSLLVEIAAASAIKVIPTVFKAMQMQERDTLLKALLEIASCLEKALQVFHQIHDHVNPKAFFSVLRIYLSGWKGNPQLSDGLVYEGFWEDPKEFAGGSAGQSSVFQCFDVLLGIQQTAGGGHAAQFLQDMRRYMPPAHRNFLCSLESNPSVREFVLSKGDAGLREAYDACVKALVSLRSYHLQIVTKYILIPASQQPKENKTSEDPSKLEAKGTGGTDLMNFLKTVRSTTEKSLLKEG
T1 sequence (P14902 whole entry): as above
T4 sequence (P48775 whole entry): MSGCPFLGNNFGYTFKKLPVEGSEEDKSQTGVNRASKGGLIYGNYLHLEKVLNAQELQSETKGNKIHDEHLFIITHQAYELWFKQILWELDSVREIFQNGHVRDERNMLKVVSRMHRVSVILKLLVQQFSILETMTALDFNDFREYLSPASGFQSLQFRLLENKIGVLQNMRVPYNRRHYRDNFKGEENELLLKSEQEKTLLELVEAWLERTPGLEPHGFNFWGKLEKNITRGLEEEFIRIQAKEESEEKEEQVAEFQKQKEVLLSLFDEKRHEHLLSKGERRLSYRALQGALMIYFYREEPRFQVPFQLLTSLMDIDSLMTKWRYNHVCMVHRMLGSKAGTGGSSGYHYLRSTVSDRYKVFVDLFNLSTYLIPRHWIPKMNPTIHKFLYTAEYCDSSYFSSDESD
T2 sequence (P48775 whole entry): as above

SMILES	IC50 [1]	IC50 [2]	IC50 ([3]; 24 hours incubation)	IC50 ([4]; 24 hours incubation)	IC50 ([3]; 24 hours)	IC50 ([4]; 24 hours)
CC(C)(C1CCN(C(=O)c2ccc(N3CCOCC3)nc2)CC1)C(O)c1cc(Cl)cc2cn[nH]c12 (stereo not shown) [Compound P-0367, (4-(1-(5-chloro-1H-indazol-7-yl)-1-hydroxy-2-methylpropan-2-yl)piperidin-1-yl)(6-morpholinopyridin-3-yl)methanone]	0.0001 to 10 µM	0.0001 to 10 µM	0.0001 to 10 µM	0.0001 to 10 µM	–	–
CC1(C)CN(c2c(F)c(Cl)cc3cn[nH]c23)CCN1S(C)(=O)=O [Compound P-0092, 5-chloro-7-(3,3-dimethyl-4-(methylsulfonyl)piperazin-1-yl)-6-fluoro-1H-indazole]	0.0001 to 10 µM	0.0001 to 10 µM	0.0001 to 10 µM	0.0001 to 10 µM	–	–
CS(=O)(=O)N1CCC2(CC1)CC(O)(c1cc(Cl)cc3cn[nH]c13)C2 [Compound P-0034, 2-(5-chloro-1H-indazol-7-yl)-7-(methylsulfonyl)-7-azaspiro[3.5]nonan-2-ol]	0.0001 to 10 µM	0.0001 to 10 µM	0.0001 to 10 µM	0.0001 to 10 µM	–	–
OC1(c2cc(Cl)cc3cn[nH]c23)CC2(COC2)C1 [Compound P-0039, 6-(5-chloro-1H-indazol-7-yl)-2-oxaspiro[3.3]heptan-6-ol]	0.0001 to 10 µM	0.0001 to 10 µM	0.0001 to 10 µM	0.0001 to 10 µM	–	–
COC(=O)C12CCC(C(O)c3cc(Cl)cc4cn[nH]c34)(CC1)CC2 (stereo not shown) [Compound P-0326, methyl 4-((5-chloro-1H-indazol-7-yl)(hydroxy)methyl)bicyclo [2.2.2]octane-1-carboxylate]	0.0001 to 10 µM	0.0001 to 10 µM	0.0001 to 10 µM	0.0001 to 10 µM	–	–
CCC(CC)C(O)c1cc(Cl)cc2cn[nH]c12 (stereo not shown) [Compound P-0268, 1-(5-chloro-1H-indazol-7-yl)-2-ethylbutan-1-ol]	0.0001 to 10 µM	0.0001 to 10 µM	0.0001 to 10 µM	0.0001 to 10 µM	–	–
O=S1(=O)CC(O)(c2cc(Cl)cc3cn[nH]c23)C1 [Compound P-0189, 3-(5-chloro-1H-indazol-7-yl)-3-hydroxythietane 1,1-dioxide]	> 200 µM	> 200 µM	> 10 µM	0.0001 to 10 µM	–	–
OC(c1c(Cl)c(Cl)cc2cn[nH]c12)C1(C2CCCCC2)CC1 (stereo not shown) [Compound P-0238, (1-cyclohexylcyclopropyl)(5,6-dichloro-1H-indazol-7-yl)methanol]	0.0001 to 10 µM	0.0001 to 10 µM	0.0001 to 10 µM	0.0001 to 10 µM	–	–
OC(c1c(F)c(Cl)c(F)c2cn[nH]c12)C1(C(F)(F)F)CCC1 (stereo not shown) [Compound P-0265, (5-chloro-4,6-difluoro-1H-indazol-7-yl)(1-(trifluoromethyl)cyclobutyl)methanol]	0.0001 to 10 µM	0.0001 to 10 µM	0.0001 to 10 µM	0.0001 to 10 µM	–	–
CC(C)(C1CCN(C(=O)Nc2ccccc2)CC1)[C@@H](O)c1cc(Cl)cc2cn[nH]c12 [Compound P-0431, (R)-4-(1-(5-chloro-1H-indazol-7-yl)-1-hydroxy-2-methylpropan-2-yl)-N-phenylpiperidine-1-carboxamide]	10 to 100 µM	0.0001 to 10 µM	–	–	0.0001 to 10 µM	0.0001 to 10 µM
COCC(=O)N1CCC(C(F)(F)C(O)c2c(F)c(Cl)cc3cn[nH]c23)CC1 (stereo not shown) [Compound P-0376, 1-(4-(2-(5-chloro-6-fluoro-1H-indazol-7-yl)-1,1-difluoro-2-hydroxyethyl)piperidin-1-yl)-2-methoxyethan-1-one]	0.0001 to 10 µM	0.0001 to 10 µM	0.0001 to 10 µM	0.0001 to 10 µM	–	–
CC(O)(c1cc(Cl)cc2cn[nH]c12)C1CCCC1 (stereo not shown) [Compound P-0205, 1-(5-chloro-1H-indazol-7-yl)-1-cyclopentylethan-1-ol]	10 to 100 µM	10 to 100 µM	> 10 µM	0.0001 to 10 µM	–	–
CC(C)(C1CCN(C(=O)C2CC2)CC1)[C@@H](O)c1cc(Cl)cc2cn[nH]c12 [Compound P-0424, (R)-(4-(1-(5-chloro-1H-indazol-7-yl)-1-hydroxy-2-methylpropan-2-yl)piperidin-1-yl)(cyclopropyl) methanone]	0.0001 to 10 µM	0.0001 to 10 µM	–	–	> 10 µM	0.0001 to 10 µM
